Data reported in paper PMC10591915 (ACS chemical biology, 2023).
Where two headings read alike, the source gives them in different places.

Legend:
[1] = biological target: T1, human CRBP1 (Homo sapiens, UniProt P09455); assay: fluorescence atROL-replacement assay (Ki determination); assay type: binding
T1 sequence (P09455 1-135): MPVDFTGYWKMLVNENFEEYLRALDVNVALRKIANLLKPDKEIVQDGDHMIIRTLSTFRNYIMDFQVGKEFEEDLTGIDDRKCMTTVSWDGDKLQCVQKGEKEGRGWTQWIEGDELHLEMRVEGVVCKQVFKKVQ

[2] = values as provided by PubChem; ref PubChem; cited from earlier work
[3] = biological target: T1, human CRBP1; details: abn-CBD reference value; cited from earlier work
[4] = test system: albino mice; details: cited from earlier work

Ki [1] [µM]	Structure (SMILES)	log P [2]	Ki [3] [µM]	protection against light-induced retinal damage [4]
10.7 ± 4.5	Cc1ccc(C2(c3noc(CN(C)Cc4cnn(C)c4)n3)CCCC2)cc1 [inhibitor 6, N-methyl-N-[[3-[1-(4-methylphenyl)cyclopentyl]-1,2,4-oxadiazol-5-yl]methyl]-1-(1-methylpyrazol-4-yl)methanamine]	3.5		
10.6 ± 2.5	CC(c1cccs1)N(C)Cc1nc(C(c2ccccc2)c2ccccc2)no1 (stereo not shown) [inhibitor 5, N-[(3-benzhydryl-1,2,4-oxadiazol-5-yl)methyl]-N-methyl-1-thiophen-2-ylethanamine]	5.0		
9 ± 4.1	Cc1ccc(C2(c3noc(CN(C)Cc4cccs4)n3)CCCC2)cc1 [inhibitor 1, N-methyl-N-[[3-[1-(4-methylphenyl)cyclopentyl]-1,2,4-oxadiazol-5-yl]methyl]-1-thiophen-2-ylmethanamine]	4.9		
	C=C(C)[C@@H]1CCC(C)=C[C@H]1c1c(O)cc(O)cc1CCCCC [abn-CBD, 4-[(1R,6R)-3-Methyl-6-prop-1-en-2-ylcyclohex-2-en-1-yl]-5-pentylbenzene-1,3-diol]	6.5	0.067	protecting against this condition in albino mice
	COc1ccc(S(=O)(=O)N2CCC(O)(CO)CC2)c2c1CCCC2 [inhibitor 4, 4-(hydroxymethyl)-1-[(4-methoxy-5,6,7,8-tetrahydronaphthalen-1-yl)sulfonyl]piperidin-4-ol]	1.4		
7.1 ± 2.7	CCN(CCn1cccn1)Cc1nc(C2(c3ccc(C)cc3)CCCC2)no1 [inhibitor 2, N-ethyl-N-[[3-[1-(4-methylphenyl)cyclopentyl]-1,2,4-oxadiazol-5-yl]methyl]-2-pyrazol-1-ylethanamine]	4.0		
	COCC1CCN(Cc2nc(C(c3ccccc3)c3ccccc3)no2)CC1 [inhibitor 3, 3-benzhydryl-5-[[4-(methoxymethyl)piperidin-1-yl]methyl]-1,2,4-oxadiazole]	4.0		
